Like-named read-outs stand apart in the source and are kept apart here.
Tests used:
[1] = system: Oral fibroblasts obtained from human gingival (HGF) tissues; experiment: MTS cell viability assay of HGF cells pre-treated with Zn, Cu and Ni, then AO mixtures
Procedure: (§1) In dentistry, the use of metals in fillings, braces, bridges and other prosthodontic restorations may form free radicals. […] A study was conducted to determine if oral fibroblasts are susceptible to damage from these agents which elevate reaction oxygen species (ROS). In this study, specific antioxidant (AO) combinations were investigated that counteract the effects of Zn, Cu and Ni on cultured oral fibroblast proliferation and oxidative damage. Oral fibroblasts obtained from human gingival (HGF) tissues were seeded into 96-well plates. After achieving 70% confluence, the cells were pre-treated with Zn, Cu and Ni for 30 and 60 minutes. Thereafter, cells were exposed to 10^-5M of the bioactive AO mixtures; resveratrol (R), ferulic acid (F) phloretin (P) and tetrahydrocurcuminoids (T); (RFT, PFR, PFT) for 24 hours. Cell viability was monitored by MTS assay. The fluorescence response of dichlorodihydrofluorescein diacetate to various ROS was measured.
(§2) A study was conducted to determine if oral fibroblasts are susceptible to damage from these agents by decreasing cell viability and whether specific antioxidants (AO) in combinations can counteract these effects. Oral fibroblasts obtained from human gingival (HGF) tissues were seeded into 96-well plates. After achieving 70% confluence, the cells were pre-treated with Zn, Cu and Ni for 30 and 60 minutes. Thereafter, cells were exposed to 10^-5M of the bioactive AO mixtures at single, double and triple combinations; resveratrol (R), ferulic acid (F), phloretin (P), and tetrahydrocurcuminoids (T) for 24 hours. Cell viability was monitored by MTS assay.

[2] = system: Oral fibroblasts obtained from human gingival (HGF) tissues
Procedure: as §1, §2

[3] = system: fibroblasts from human gingival (HGF) and human periodontal ligament (HPDF) cells
Procedure: A study was done to determine the antioxidant effect on fibroblasts from human gingival (HGF) and human periodontal ligament (HPDF) cells exposed to increasing concentration of cytotoxic metals. HGF and HPDF cells were extracted and seeded with 10% fetal bovine serum (FBS). Both the HGF and HPDF cells were then exposed to one of 3×10^−4M or 2×10^−4M ZnCl2, 2×10^−3M or 1×10^−3M NiCl2, 5×10^−4M or 4×10^−4M CuCl2. Next, the samples were treated with bioactive antioxidant (AO) mixtures at single, double, and triple combinations; resveratrol (R), ferulic acid (F), phloretin (P), and tetrahydrocurcuminoids (T). Both the HGF and HPDF cells were then monitored by MTS, ROS, and BrdU assays.

TNF-α = TNF-α production by Aa Y4 LPS-stimulated PBMCs (ELISA); type: cell-based, human; conditions: PBMCs pre-treated 2 hrs with 1×10^−4M anti-oxidant, then LPS 18 hrs
Description: (§3) Cell Culture—PBMCs were isolated from buffy coats derived from healthy donors (Sylvan N. Goldman Oklahoma Blood Institute, Oklahoma City, Okla., USA) by density gradient centrifugation (Ficoll-Paque plus; GE Healthcare, Piscataway, N.J., USA). Oleuropein (purity=80.17%) was purchased from Sabinsa Corporation (Payson, Utah, USA). Silymarin (purity≥95%), ferulic acid (purity≥98%), hesperetin (purity≥95%), resveratrol (purity≥99%), and phloretin (purity≥99%) were purchased from Sigma-Aldrich (St Louis, Mo., USA). Dimethyl sulfoxide (DMSO) (purity=99.90%) was purchased from EMD Millipore (Billerica, Mass., USA). Oleuropein, silymarin, ferulic acid, hesperetin, resveratrol and phloretin were provided as 0.1M stock solutions prepared in DMSO by Periosciences Ltd (Dallas, Tex., USA).
PBMCs were seeded at either 4×10^5 or 1.2×10^6 cells in 96- or 48-well tissue culture plates (BD Biosciences, Franklin Lakes, N.J., USA) respectively. PBMCs were pre-treated with single antioxidants at a concentration of 1×10^−4 M or combinations of antioxidants with a combined concentration of 1×10^−4 M for 2 hrs prior to stimulation. […] S.C.) at a concentration of 1 μg/ml in the presence of antioxidants. Media were collected, spun at 1600 RPM and cell-free supernatants transferred to fresh tubes and stored at −20 C. Cell viability was assayed using CellTiter 96® AQueous One Solution Reagent (Promega, Madison, Wis., USA) following the manufacturers guidelines. 20 μl of the reagent was added to each well and incubated for 2 hrs under culture conditions. After 2 hrs the absorbance at 490 nm was recorded using a 96-well plate reader.
ELISA and Multiplex Assays—Human tumour necrosis factor-alpha (TNF-α) capture and detection Abs were purchased from Life Technologies (Carlsbad, Calif., USA) and used for the development of a TNF-α sandwich ELISA according to the manufacturer's instructions. Cell culture supernatants were analyzed using a 96-well plate reader with absorbance at 450 nm (reference 650 nm).
Stimulation of PBMCs with Aa Y4 LPS—To establish the optimal concentrations of anti-oxidants and LPS for this study, dose and kinetic experiments were performed. The doses examined were: 1×10^−4, 1×10^−5 and 1×10^−6M while the challenge concentrations of Aa Y4 LPS were 1, 10, 100 or 1000 ng/ml. Whole blood was stimulated with several concentrations of E. coli or Aa Y4 LPS and TNF-α production quantified by ELISA over 3 time-points: 16, 24 and 48 hrs.

CCL5 = CCL5 production by LPS-stimulated PBMCs (multiplex); type: cell-based, human; conditions: 1×10^−4M anti-oxidant 2 hrs, then LPS 18 hrs
Description: as §3, with “Oleuropein, silymarin, ferulic acid, hesperetin, resveratrol and phloretin were provided as 0.1M stock solutions prepared in DMSO by Periosciences Ltd (Dallas, Tex., USA).” left out
(§4) PBMCs were seeded at either 4×10^5 or 1.2×10^6 cells in 96- or 48-well tissue culture plates (BD Biosciences, Franklin Lakes, N.J., USA) respectively. […] After 2 hrs the absorbance at 490 nm was recorded using a 96-well plate reader.
(§5) Human Cytokine Fluorokine MAP kit was purchased from R & D Systems (Minneapolis, Minn., USA). Readouts included TNF-α, IL-1α, IL-1β, IL-1Ra, IL-2, IL-4, IL-5, IL-6, IL-8, IL-10, IL-17, macrophage inflammatory protein (MIP)-1α (MIP-1α), MIP-1β, interferon-γ (IFN-γ), granulocyte-colony stimulating factor (G-CSF), granulocyte macrophage-colony stimulating factor (GM-CSF), macrophage chemotactic protein (MCP-1), CCL5, CXCL5, vascular endothelial growth factor (VEGF), thrombopoietin (TPO) and fibroblast growth factor basic (FGFb). […]

TNF-α mRNA = experiment: RT-PCR of TNF-α mRNA in LPS-stimulated PBMCs; type: cell-based, human; conditions: harvested after 4 hrs, 2-ΔΔCt, GAPDH control
Procedure: (§6) RT-PCR Assays—Total RNA was extracted from homogenized cells using the miRNeasy kit (Qiagen, Valencia, Calif., USA) according to the manufacturer's protocol. Total RNA quantified on Nanodrop (ThermoScientific, Rockford, Ill., USA) was used for first strand cDNA synthesis using the SS RTIII kit (Life Technologies, Carlsbad, Calif., USA). Real-time PCR was performed using EvaGreen 2× master mix (Biotium, Hayward, Calif., USA), 10 pmol forward and reverse gene specific primers and 1 ul of 1:10 diluted cDNA. GAPDH was used as endogenous control. The fold change was calculated using 2-ΔΔCt method and the control was set at 1. Custom primers were purchased from Sigma-Aldrich (St Louis, Mo., USA). Primer sequences for TNF-α were: Forward, […], Reverse: […]. Primer sequences for IκB-α were: Forward, […], Reverse: […]. Data Analysis—Statistics were performed using two-tailed t-test or one-way analysis of variance (ANOVA). Statistical significance is indicated by an asterisk *, where p≤0.05. Error bars on all graphs indicate standard error of mean (SEM) or standard deviation (SD).
(§7) Inhibition of TNF-α is present at the level of mRNA transcription—Whether the reduced production of inflammatory mediators was due to decreased mRNA transcription was investigated. […] After 4 hrs the cells were harvested, total RNA isolated and RT-PCR performed to measure the levels of TNF-α mRNA present. […]

IL-1α = IL-1α production by LPS-stimulated PBMCs (multiplex); type: cell-based, human; conditions: 1×10^−4M anti-oxidant 2 hrs, then LPS 18 hrs
Description: as §3
(§8) PBMCs were seeded at either 4×10^5 or 1.2×10^6 cells in 96- or 48-well tissue culture plates (BD Biosciences, Franklin Lakes, N.J., USA) respectively. PBMCs were pre-treated with single antioxidants at a concentration of 1×10^−4 M or combinations of antioxidants with a combined concentration of 1×10^−4 M for 2 hrs prior to stimulation. PBMCs were then stimulated for 16 hrs with purified LPS isolated from the bacterium Actinobacillus actinomycetemcomitans, strain Y4 (Aa Y4); a kind gift of Dr Kirkwood, Univ. S.C.) at a concentration of 1 μg/ml in the presence of antioxidants. Media were collected, spun at 1600 RPM and cell-free supernatants transferred to fresh tubes and stored at −20 C. […] After 2 hrs the absorbance at 490 nm was recorded using a 96-well plate reader.
as §5

IFN-γ = IFN-γ production by LPS-stimulated PBMCs (multiplex); type: cell-based, human; conditions: 1×10^−4M anti-oxidant 2 hrs, then LPS 18 hrs
Description: as §3, §8, §5

IL-6 = IL-6 production by LPS-stimulated PBMCs (multiplex); type: cell-based, human; conditions: 1×10^−4M anti-oxidant 2 hrs, then LPS 18 hrs
Description: as §3, §8, §5

G-CSF = G-CSF production by LPS-stimulated PBMCs (multiplex); type: cell-based, human; conditions: 1×10^−4M anti-oxidant 2 hrs, then LPS 18 hrs
Description: Cell Culture—PBMCs were isolated from buffy coats derived from healthy donors (Sylvan N. Goldman Oklahoma Blood Institute, Oklahoma City, Okla., USA) by density gradient centrifugation (Ficoll-Paque plus; GE Healthcare, Piscataway, N.J., USA). Oleuropein (purity=80.17%) was purchased from Sabinsa Corporation (Payson, Utah, USA). […] Dimethyl sulfoxide (DMSO) (purity=99.90%) was purchased from EMD Millipore (Billerica, Mass., USA). Oleuropein, silymarin, ferulic acid, hesperetin, resveratrol and phloretin were provided as 0.1M stock solutions prepared in DMSO by Periosciences Ltd (Dallas, Tex., USA).
PBMCs were seeded at either 4×10^5 or 1.2×10^6 cells in 96- or 48-well tissue culture plates (BD Biosciences, Franklin Lakes, N.J., USA) respectively. PBMCs were pre-treated with single antioxidants at a concentration of 1×10^−4 M or combinations of antioxidants with a combined concentration of 1×10^−4 M for 2 hrs prior to stimulation. PBMCs were then stimulated for 16 hrs with purified LPS isolated from the bacterium Actinobacillus actinomycetemcomitans, strain Y4 (Aa Y4); a kind gift of Dr Kirkwood, Univ. S.C.) at a concentration of 1 μg/ml in the presence of antioxidants. Media were collected, spun at 1600 RPM and cell-free supernatants transferred to fresh tubes and stored at −20 C. Cell viability was assayed using CellTiter 96® AQueous One Solution Reagent (Promega, Madison, Wis., USA) following the manufacturers guidelines. […] After 2 hrs the absorbance at 490 nm was recorded using a 96-well plate reader.

IL-1β = IL-1β production by LPS-stimulated PBMCs (multiplex, FIG. 9D); type: cell-based, human; conditions: 1×10^−4M anti-oxidant 2 hrs, then LPS 18 hrs
Description: as §3, with “Oleuropein, silymarin, ferulic acid, hesperetin, resveratrol and phloretin were provided as 0.1M stock solutions prepared in DMSO by Periosciences Ltd (Dallas, Tex., USA).” left out
as §4, §5

IL-10 = IL-10 production by LPS-stimulated PBMCs (multiplex); type: cell-based, human; conditions: 1×10^−4M anti-oxidant 2 hrs, then LPS 18 hrs
Description: as §3, with “Oleuropein, silymarin, ferulic acid, hesperetin, resveratrol and phloretin were provided as 0.1M stock solutions prepared in DMSO by Periosciences Ltd (Dallas, Tex., USA).” left out
as §4, §5

IL-1Ra = IL-1Ra production by LPS-stimulated PBMCs (multiplex); type: cell-based, human; conditions: 1×10^−4M anti-oxidant 2 hrs, then LPS 18 hrs
Description: as §3, with “Oleuropein, silymarin, ferulic acid, hesperetin, resveratrol and phloretin were provided as 0.1M stock solutions prepared in DMSO by Periosciences Ltd (Dallas, Tex., USA).” left out
as §4, §5

IκB-α mRNA = experiment: RT-PCR of IκB-α mRNA in LPS-stimulated PBMCs (NF-κB activation); type: cell-based, human
Procedure: as §6, §7

[4] = HGF and HPDF, Example 4 metal concentrations

## [Cl][Cu][Cl] [Cu, CuCl2]
[1]
  viable cells after incubation with metal (MTS): dose-dependent decrease of viable cells
[2]
  effect of metal on ROS: increased ROS
[3]
  effect of metal on ROS: increased ROS

## [Cl][Ni][Cl] [Ni, NiCl2]
[1]; HGF cells, 30 and 60 minutes
  viable cells after incubation with metal (MTS): dose-dependent decrease of viable cells
[2]; HGF cells
  effect of metal on ROS: increased ROS
[3]; [4]
  effect of metal on ROS: little effect on ROS

## [Cl-].[Cl-].[Zn+2] [Zn, ZnCl2]
[1]; HGF cells, 30 and 60 minutes
  viable cells after incubation with metal (MTS): dose-dependent decrease of viable cells
[2]; HGF cells
  effect of metal on ROS: increased ROS
[3]; [4]
  effect of metal on ROS: little effect on ROS

## COc1cc(/C=C/C(=O)O)ccc1O [ferulic acid]
TNF-α
  TNF-α production: no observed effect
CCL5
  production of CCL5: Apart from ferulic acid
TNF-α mRNA
  reduction of TNF-α mRNA expression levels: not

## COc1ccc([C@@H]2CC(=O)c3c(O)cc(O)cc3O2)cc1O [hesperetin]
IL-1α
  production of IL-1α: inhibited the production
IFN-γ
  IFN-γ induced by LPS stimulation: abolished
TNF-α
  TNF-α production: Significant inhibition
IL-6
  production of IL-6: inhibited the production
G-CSF
  G-CSF production: inhibited
IL-1β
  levels of IL-1β: decreased levels

## O=C(CCc1ccc(O)cc1)c1c(O)cc(O)cc1O [phloretin]
IL-1α
  production of IL-1α: inhibited the production
IL-10
  production of IL-10: inhibited the production
IFN-γ
  IFN-γ induced by LPS stimulation: abolished
TNF-α
  TNF-α production: Significant inhibition
IL-6
  production of IL-6: inhibited the production
G-CSF
  G-CSF production: inhibited
IL-1Ra
  production of IL-1Ra: inhibited the production

## Oc1ccc(C=Cc2cc(O)cc(O)c2)cc1 [resveratrol]
IL-1α
  production of IL-1α: inhibited the production
IL-10
  production of IL-10: inhibited the production
IFN-γ
  IFN-γ induced by LPS stimulation: abolished
TNF-α
  TNF-α production: Significant inhibition
IL-6
  production of IL-6: inhibited the production
G-CSF
  G-CSF production: inhibited
IκB-α mRNA
  reduction of IκB-α mRNA expression: ~50%
IL-1Ra
  production of IL-1Ra: inhibited the production
IL-1β
  levels of IL-1β: decreased levels
